Test results taken from ChEMBL document CHEMBL4825757, “Optimization of 4,6-Disubstituted Pyrido[3,2-d]pyrimidines as Dual MNK/PIM Inhibitors to Inhibit Leukemia Cell Growth” (J Med Chem, 2021).
Active and inactive are the calls of the source. The calls are words filed in the database; no cut-off is given here.

Assays:
MOLM-13 [1] = assay: Induction of apoptosis in human MOLM-13 cells assessed as live cells at 1 uM incubated for 12 hrs by annexin-V and propidium iodide staining based flow cytometry analysis (reference value: 91.49%); assay type: functional
[2] = molecular target: MAP kinase-interacting serine/threonine-protein kinase 1/2 (Homo sapiens) (UniProt Q9HBH9+Q9BUB5); assay: Inhibition of MNK1/MNK2 in human K562 cells assessed as reduction in eIF4E phosphorylation at 1 to 2 uM incubated for 24 hrs by western blot analysis; assay type: cell-based; settings: dose 1-2 µM
[3] = Tmax in Sprague Dawley rat at 10 mg/kg, ip measured after 24 hrs; assay type: ADME, organism-based; settings: in vivo
MOLM-13 [4] = assay: Induction of apoptosis in human MOLM-13 cells assessed as late apoptotic cells at 1 uM incubated for 12 hrs by annexin-V and propidium iodide staining based flow cytometry analysis (reference value: 3.03%); assay type: functional
[5] = molecular target: T1, MAP kinase-interacting serine/threonine-protein kinase 1 (Homo sapiens, UniProt Q9BUB5); assay: Inhibition of wild type human full length MKN1 (M1 to L424) expressed in mammalian expression system at 1 uM by Kinomescan method relative to control
Target sequence in this assay (Q9BUB5 whole entry, looked up): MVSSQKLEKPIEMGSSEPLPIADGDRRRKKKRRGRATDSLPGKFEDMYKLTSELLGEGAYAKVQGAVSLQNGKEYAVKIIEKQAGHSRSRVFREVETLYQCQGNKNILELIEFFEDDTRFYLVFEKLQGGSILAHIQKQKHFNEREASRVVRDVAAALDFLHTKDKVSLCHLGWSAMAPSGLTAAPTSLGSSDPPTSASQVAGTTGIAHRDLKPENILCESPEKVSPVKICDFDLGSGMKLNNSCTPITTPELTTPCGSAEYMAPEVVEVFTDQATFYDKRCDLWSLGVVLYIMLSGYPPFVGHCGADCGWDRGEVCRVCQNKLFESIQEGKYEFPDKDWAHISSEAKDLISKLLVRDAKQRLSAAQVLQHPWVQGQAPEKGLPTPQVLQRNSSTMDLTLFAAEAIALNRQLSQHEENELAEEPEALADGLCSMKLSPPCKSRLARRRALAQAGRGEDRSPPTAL

MOLM-13 [6] = assay: Antitumor activity against human MOLM-13 cells xenografted in NOD/SCID mouse assessed as decrease in cyclin-D1 levels at 10 mg/kg, ip daily for 2 weeks by western blot analysis; assay type: functional, organism-based
[7] = Toxicity in NOD/SCID mouse xenografted with human MOLM-13 cells assessed as abnormal changes in liver at 5 to 10 mg/kg, ip daily for 2 weeks by hematoxylin-eosin staining based histological analysis; assay type: organism-based; settings: in vivo, 336 h, dose 5-10 mg/kg
[8] = molecular target: T1, MAP kinase-interacting serine/threonine-protein kinase 1; assay: Inhibition of wild type human full length MKN1 (M1 to L424) expressed in mammalian expression system by HTRF method
Target sequence in this assay (Q9BUB5 whole entry): as the sequence (Q9BUB5 whole entry, looked up) above

MOLM-13 [9] = assay: Antitumor activity against human MOLM-13 cells xenografted in NOD/SCID mouse assessed as decrease in 4EBP1 phosphorylation at 5 to 10 mg/kg, ip daily for 2 weeks by western blot analysis; assay type: functional, organism-based; settings: dose 5-10 mg/kg
[10] = Intrinsic clearance in rat liver microsomes preincubated for 10 mins followed by NADPH addition and further incubated upto 60 mins by LC-MS/MS analysis; assay type: ADME, Microsome; settings: time <=70 min, read-out: CLH
MOLM-13 [11] = assay: Antiproliferative activity against human MOLM13 cells assessed as reduction of cell viability incubated for 72 hrs by trypan blue staining based cell counting analysis; assay type: functional
[12] = molecular target: Epidermal growth factor receptor (Homo sapiens, UniProt P00533); assay: Inhibition of wild-type human partial length EGFR (R669 to V1011 residues) expressed in bacterial expression system at 1 uM by Kinomescan method relative to control
[13] = molecular target: T1, MAP kinase-interacting serine/threonine-protein kinase 1; assay: Inhibition of MKN1 (unknown origin) in presence of ATP by HTRF assay
Target sequence in this assay (Q9BUB5 whole entry): as the sequence (Q9BUB5 whole entry, looked up) above

[14] = Intrinsic clearance in human liver microsomes preincubated for 10 mins followed by NADPH addition and further incubated upto 60 mins by LC-MS/MS analysis; assay type: ADME, Microsome; settings: time <=70 min, read-out: CLH
[15] = Metabolic stability in rat liver microsomes assessed as half life preincubated for 10 mins followed by NADPH addition and further incubated upto 60 mins by LC-MS/MS analysis; assay type: ADME, Microsome; settings: time <=70 min
[16] = molecular target: T2, Serine/threonine-protein kinase B-raf (Homo sapiens, UniProt P15056); assay: Inhibition of recombinant human B-Raf (416 to end residues) using myelin as substrate incubated for 40 mins in presence of [gamma-33P]-ATP by radiometric scintillation counting analysis
[17] = Cmax in Sprague Dawley rat at 10 mg/kg, ip measured after 24 hrs; assay type: ADME, organism-based; parameters: route intraperitoneal, time 24 hrs, dose 10 mg/kg; settings: in vivo
[18] = Half life in Sprague Dawley rat at 2 mg/kg, iv measured after 24 hrs; assay type: ADME, organism-based; settings: in vivo
HL-60 = assay: Antiproliferative activity against human HL-60 cells assessed as reduction of cell viability incubated for 72 hrs by trypan blue staining based cell counting analysis; assay type: functional
[19] = Toxicity in NOD/SCID mouse xenografted with human MOLM-13 cells assessed as abnormal changes in heart at 5 to 10 mg/kg, ip daily for 2 weeks by hematoxylin-eosin staining based histological analysis; assay type: organism-based; settings: in vivo, 336 h, dose 5-10 mg/kg
K562 = assay: Downregulation of c-myc levels in human K562 cells at 1 to 2 uM incubated for 24 hrs by western blot analysis; assay type: functional, cell-based; settings: dose 1-2 µM
MOLM-13 [20] = assay: Antitumor activity against human MOLM-13 cells xenografted in NOD/SCID mouse assessed as decrease in eIF4E phosphorylation at 10 mg/kg, ip daily for 2 weeks by western blot analysis; assay type: functional, organism-based
[21] = molecular target: Serine/threonine-protein kinase pim-3 (Homo sapiens, UniProt Q86V86); assay: Inhibition of recombinant human Pim3 (2 to end residues) using RSRHSSYPAGT as substrate incubated for 40 mins in presence of [gamma33P]ATP by scintillation counting based radiometry assay
[22] = molecular target: Serine/threonine-protein kinase pim-1 (Homo sapiens, UniProt P11309); assay: Inhibition of full length recombinant human PIM1 using KKRNRTLTV as substrate incubated for 40 mins in presence of [gamma33P]ATP by scintillation counting based radiometry assay
MOLM-13 [23] = assay: Induction of apoptosis in human MOLM-13 cells assessed as early apoptotic cells at 2 uM incubated for 12 hrs by annexin-V and propidium iodide staining based flow cytometry analysis (reference value: 5.40%); assay type: functional
[24] = Toxicity in NOD/SCID mouse xenografted with human MOLM-13 cells assessed as decrease in body weight at 5 to 10 mg/kg, ip daily for 2 weeks; assay type: organism-based; settings: in vivo, 336 h, dose 5-10 mg/kg
[25] = molecular target: T1, MAP kinase-interacting serine/threonine-protein kinase 1; assay: Inhibition of MKN1 (unknown origin) at 1 uM in presence of ATP by HTRF assay
Target sequence in this assay (Q9BUB5 whole entry, looked up): as above

[26] = molecular target: MAP kinase-interacting serine/threonine-protein kinase 2 (Homo sapiens, UniProt Q9HBH9); assay: Inhibition of MKN2 (unknown origin) in presence of ATP by HTRF assay
MOLM-13 [27] = assay: Induction of apoptosis in human MOLM-13 cells assessed as late apoptotic cells at 2 uM incubated for 12 hrs by annexin-V and propidium iodide staining based flow cytometry analysis (reference value: 3.03%); assay type: functional
[28] = molecular target: T2, Serine/threonine-protein kinase B-raf; assay: Inhibition of wild-type human partial length BRAF (S429 to E741 residues) expressed in mammalian expression system at 1 uM by Kinomescan method relative to control
[29] = Cmax in Sprague Dawley rat at 10 mg/kg, po measured after 24 hrs; assay type: ADME, organism-based; parameters: route oral, time 24 hrs, dose 10 mg/kg; settings: in vivo
[30] = Bioavailability in Sprague Dawley rat at 10 mg/kg, ip measured after 24 hrs; assay type: ADME, organism-based; settings: in vivo
MOLM-13 [31] = assay: Induction of apoptosis in human MOLM-13 cells assessed as early apoptotic cells at 1 uM incubated for 12 hrs by annexin-V and propidium iodide staining based flow cytometry analysis (reference value: 5.40%); assay type: functional
[32] = molecular target: Serine/threonine-protein kinase PIM (Homo sapiens) (UniProt P11309+Q9P1W9+Q86V86); assay: Inhibition of PIM in human MOLM-13 cells assessed as reduction in phosphorylated 4EBP1 at 1 to 2 uM incubated for 12 hrs by western blot analysis; assay type: cell-based; settings: dose 1-2 µM
[33] = AUC (0 to t) in Sprague Dawley rat at 10 mg/kg, po measured after 24 hrs; assay type: ADME, organism-based; parameters: route oral, dose 10 mg/kg, time 24 hrs; settings: in vivo
[34] = Toxicity in NOD/SCID mouse xenografted with human MOLM-13 cells assessed as abnormal changes in kidney at 5 to 10 mg/kg, ip daily for 2 weeks by hematoxylin-eosin staining based histological analysis; assay type: organism-based; settings: in vivo, 336 h, dose 5-10 mg/kg

T2 sequence (P15056 whole entry): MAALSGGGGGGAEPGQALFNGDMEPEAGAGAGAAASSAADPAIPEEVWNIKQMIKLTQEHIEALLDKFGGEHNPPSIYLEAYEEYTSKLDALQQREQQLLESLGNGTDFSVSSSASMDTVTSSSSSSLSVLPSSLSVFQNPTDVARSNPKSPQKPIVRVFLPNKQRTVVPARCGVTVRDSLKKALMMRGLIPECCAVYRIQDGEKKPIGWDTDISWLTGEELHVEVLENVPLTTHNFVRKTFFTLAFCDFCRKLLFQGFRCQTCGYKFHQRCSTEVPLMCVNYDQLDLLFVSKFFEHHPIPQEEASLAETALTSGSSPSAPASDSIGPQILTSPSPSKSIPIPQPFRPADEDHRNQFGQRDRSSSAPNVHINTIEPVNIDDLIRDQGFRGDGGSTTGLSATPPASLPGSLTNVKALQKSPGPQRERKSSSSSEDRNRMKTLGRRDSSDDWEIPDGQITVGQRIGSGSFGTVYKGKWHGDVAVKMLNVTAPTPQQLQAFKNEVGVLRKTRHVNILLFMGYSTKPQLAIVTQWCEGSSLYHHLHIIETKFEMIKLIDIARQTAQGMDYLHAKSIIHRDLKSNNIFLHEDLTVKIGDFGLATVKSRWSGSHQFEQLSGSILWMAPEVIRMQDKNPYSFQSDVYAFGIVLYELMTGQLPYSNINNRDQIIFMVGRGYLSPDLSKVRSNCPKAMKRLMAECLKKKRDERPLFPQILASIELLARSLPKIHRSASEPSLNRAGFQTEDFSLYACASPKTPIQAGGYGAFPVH
Chain of Epidermal growth factor receptor (P00533 whole entry, the tested form may be a part): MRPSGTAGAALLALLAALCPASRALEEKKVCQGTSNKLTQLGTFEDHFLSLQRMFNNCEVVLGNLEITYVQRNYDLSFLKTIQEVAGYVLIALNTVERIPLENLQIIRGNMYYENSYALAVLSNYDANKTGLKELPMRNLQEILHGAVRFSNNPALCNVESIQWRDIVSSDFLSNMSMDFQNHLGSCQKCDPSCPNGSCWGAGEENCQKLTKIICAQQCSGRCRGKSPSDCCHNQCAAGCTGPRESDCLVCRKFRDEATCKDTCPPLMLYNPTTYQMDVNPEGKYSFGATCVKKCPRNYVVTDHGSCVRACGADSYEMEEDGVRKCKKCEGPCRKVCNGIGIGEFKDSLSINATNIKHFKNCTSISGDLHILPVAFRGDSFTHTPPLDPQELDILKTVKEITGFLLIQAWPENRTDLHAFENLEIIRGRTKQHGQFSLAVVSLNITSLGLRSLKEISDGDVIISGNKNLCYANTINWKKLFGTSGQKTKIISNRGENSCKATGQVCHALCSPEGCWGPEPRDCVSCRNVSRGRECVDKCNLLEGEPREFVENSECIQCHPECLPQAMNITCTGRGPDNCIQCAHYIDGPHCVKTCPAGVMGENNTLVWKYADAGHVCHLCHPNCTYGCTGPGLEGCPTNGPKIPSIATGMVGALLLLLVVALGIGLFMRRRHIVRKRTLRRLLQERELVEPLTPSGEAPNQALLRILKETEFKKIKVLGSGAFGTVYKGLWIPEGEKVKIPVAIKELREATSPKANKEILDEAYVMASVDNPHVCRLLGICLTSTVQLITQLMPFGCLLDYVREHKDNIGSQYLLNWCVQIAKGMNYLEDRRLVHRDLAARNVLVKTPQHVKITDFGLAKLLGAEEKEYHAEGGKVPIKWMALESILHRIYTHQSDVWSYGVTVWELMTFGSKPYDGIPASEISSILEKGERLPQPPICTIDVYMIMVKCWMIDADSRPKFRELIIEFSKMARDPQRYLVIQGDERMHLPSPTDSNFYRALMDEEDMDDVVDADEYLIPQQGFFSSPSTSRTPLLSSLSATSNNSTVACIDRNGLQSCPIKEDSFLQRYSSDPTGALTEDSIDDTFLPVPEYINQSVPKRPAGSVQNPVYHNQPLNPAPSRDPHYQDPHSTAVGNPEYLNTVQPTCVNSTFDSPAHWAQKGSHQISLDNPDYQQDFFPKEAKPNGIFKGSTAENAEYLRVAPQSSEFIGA
Chain of MAP kinase-interacting serine/threonine-protein kinase 2 (Q9HBH9 whole entry): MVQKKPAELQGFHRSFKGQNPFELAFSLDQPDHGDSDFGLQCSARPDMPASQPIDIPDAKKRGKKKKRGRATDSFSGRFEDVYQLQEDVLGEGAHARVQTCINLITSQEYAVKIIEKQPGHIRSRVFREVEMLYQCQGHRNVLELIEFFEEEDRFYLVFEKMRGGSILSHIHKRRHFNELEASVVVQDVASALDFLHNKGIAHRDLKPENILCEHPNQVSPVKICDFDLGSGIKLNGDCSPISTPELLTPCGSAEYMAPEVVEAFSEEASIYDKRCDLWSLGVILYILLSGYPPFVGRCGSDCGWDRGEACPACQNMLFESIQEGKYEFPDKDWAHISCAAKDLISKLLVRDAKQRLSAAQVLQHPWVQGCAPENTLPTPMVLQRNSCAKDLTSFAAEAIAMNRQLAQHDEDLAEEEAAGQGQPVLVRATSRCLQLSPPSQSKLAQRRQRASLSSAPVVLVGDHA
Chain of Serine/threonine-protein kinase pim-1 (P11309 whole entry): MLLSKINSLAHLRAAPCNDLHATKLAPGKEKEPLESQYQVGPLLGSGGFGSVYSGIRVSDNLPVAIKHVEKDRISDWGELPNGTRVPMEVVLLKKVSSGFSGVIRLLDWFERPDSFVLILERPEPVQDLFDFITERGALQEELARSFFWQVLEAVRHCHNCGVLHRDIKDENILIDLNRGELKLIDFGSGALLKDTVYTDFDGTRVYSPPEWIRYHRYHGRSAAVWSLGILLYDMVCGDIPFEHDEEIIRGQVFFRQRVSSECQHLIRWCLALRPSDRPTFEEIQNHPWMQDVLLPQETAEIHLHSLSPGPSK
Chain of Serine/threonine-protein kinase PIM (Homo sapiens) (P11309 whole entry, looked up): as the sequence (P11309 whole entry) above
Chain of Serine/threonine-protein kinase PIM (Homo sapiens) (Q9P1W9 whole entry, looked up): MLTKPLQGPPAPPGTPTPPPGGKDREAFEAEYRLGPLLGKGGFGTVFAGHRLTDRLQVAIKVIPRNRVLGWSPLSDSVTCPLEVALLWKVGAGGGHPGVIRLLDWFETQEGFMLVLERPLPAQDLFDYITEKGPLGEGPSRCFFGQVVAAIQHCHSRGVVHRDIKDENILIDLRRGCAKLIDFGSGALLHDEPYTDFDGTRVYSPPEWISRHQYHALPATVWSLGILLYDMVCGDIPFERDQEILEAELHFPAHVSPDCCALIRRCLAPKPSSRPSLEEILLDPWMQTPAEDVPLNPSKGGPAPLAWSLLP

CC(C)Oc1cc(F)ccc1Nc1ncnc2ccc(-c3ccc(C(=O)N4CCNCC4)cc3)nc12
Activity (MOLM-13 [1]): 90.09% | inhibition [2]: Dose-Dependent Effect | Tmax [3]: 40.2 min | Activity (MOLM-13 [4]): 2.97% | inhibition [5]: 100% | Activity (MOLM-13 [6]): Active | Activity [7]: Non-Toxic | IC50 [8]: 1 nM | Activity (MOLM-13 [9]): Active | CLint scaled [10]: 68.8 mL/min/kg | GI50 (MOLM-13 [11]): 1230 nM | inhibition [12]: 73% | IC50 [13]: 1 nM | CLint scaled [14]: 8.53 mL/min/kg | half-life [15]: 36.1 min | IC50 [16]: 2220 nM | Cmax [17]: 405 ng/mL | half-life [18]: 403 min | GI50 (HL-60): 1500 nM | Activity [19]: Non-Toxic | Activity (K562): Active | Activity (MOLM-13 [20]): Active | IC50 [21]: 774 nM | IC50 [22]: 43 nM | Activity (MOLM-13 [23]): 29.57% | Activity [24]: Non-Toxic | inhibition [25]: 97% | IC50 [26]: 7 nM | Activity (MOLM-13 [27]): 8.2% | inhibition [28]: 87% | Cmax [29]: 224 ng/mL | bioavailability [30]: 20.6% | Activity (MOLM-13 [31]): 6.83% | inhibition [32]: Active | AUC(0-t) at 24 h [33]: 2850 ng·h/mL | Activity [34]: Non-Toxic
